Test results reported in patent US20180099937A1, “NOVEL ARYL-CYANOGUANIDINE COMPOUNDS” (Bayer Pharma Aktiengesellschaft, priority 2015, published 2018).

Columns and labels:
SMYD2 [1] = biological target: T1, SMYD2 (Homo sapiens, UniProt Q9NRG4); assay: Scintillation Proximity Assay (SPA) for detection of SMYD2 enzymatic inhibition; type: biochemical; set-up: The SMYD2 full length enzyme was produced in-house by expression (with an N-terminal 6× His tag) in E. coli; 6xHis (N); made in house; host or cells: E. coli; conditions: SMYD2 full length enzyme, p53 Peptide substrate 1.0 μM, 3H-SAM 60 nM; read-out: IC50 [mol/l] (SPA Assay)
T1 sequence (Q9NRG4 whole entry): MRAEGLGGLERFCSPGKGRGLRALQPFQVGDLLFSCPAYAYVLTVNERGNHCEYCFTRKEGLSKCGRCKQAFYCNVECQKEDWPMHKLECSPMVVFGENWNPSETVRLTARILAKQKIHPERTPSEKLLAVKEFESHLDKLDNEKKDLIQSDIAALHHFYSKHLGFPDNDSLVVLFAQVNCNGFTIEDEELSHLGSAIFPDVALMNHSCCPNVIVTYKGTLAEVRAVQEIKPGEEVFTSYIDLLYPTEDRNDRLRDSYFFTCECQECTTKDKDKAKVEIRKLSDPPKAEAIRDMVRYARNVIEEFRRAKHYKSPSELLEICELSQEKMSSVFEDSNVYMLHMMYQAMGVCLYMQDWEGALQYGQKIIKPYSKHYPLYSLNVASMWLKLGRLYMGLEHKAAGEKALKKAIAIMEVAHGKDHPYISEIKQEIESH
Method in brief: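 Full-length N-His SMYD2 from E. coli (typically 3 nM) was preincubated with compounds (0.1 nM–20 μM) for 15 min, then reacted 30 min at 22° C with 60 nM 3H-SAM and 1.0 μM biotinylated p53 peptide in Tris pH 9.0. Streptavidin SPA beads read methylation, and IC50 came from a 4-parameter fit.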

SMYD2 [2] = biological target: T1, SMYD2; assay: In Cell Western (ICW) cell-based assay for detection of SMYD2 methylation activity; set-up: expressed in transfected cells; host or cells: KYSE-150 (human esophageal carcinoma, DSMZ ACC 375); conditions: SMYD2 overexpressing KYSE-150 cells, 72 h treatment, p53K370me1 signal normalized to DRAQ5; read-out: IC50 [mol/l] (ICW assay)
Description: 1.2 Cell-Based Assay for Detection of SMYD2 methylation Activity
For the detection of SMYD2 cellular methylation activity an In Cell Western (ICW) assay was established. This assay allows rapid processing of multiple samples for SMYD2 methylation derived immunofluorescence signals, with normalization to cell number via the use of the nucleic acid dye DRAQS. KYSE-150 cells (human esophageal carcinoma cell line; DSMZ-German Collection of Microorganisms and Cell Cultures; No: ACC 375) have been stably transfected with a construct expressing wild-type SMYD2 (NCBI Reference Sequence: NP_064582.2). To detect SMYD2-mediated methylation signals in cells, a customized antibody directed against mono-methylated lysine 370 on protein p53 (p53K370me1) was used. The polyclonal antibody was generated (Eurogentec) against a p53 peptide containing the mono-methylated K370 epitope as described elsewhere (Huang et al., Nature, 2006, 444(7119):629-32).
For conducting the ICW assay 5000 SMYD2 overexpressing KYSE-150 cells/well were seeded in 96-well plates (SIGMA) and cultivated for 24 h. As a control for maximal inhibition of ectopic methylation activity, non-transfected KYSE-150 cells were used. Cells were grown in 49% RPMI 1640 with 49% Ham's F12 media supplemented with 2% heat inactivated fetal calf serum (FCS). For determination of SMYD2 inhibitory activity, cells were treated for 72 h in the presence of compounds or with DMSO. Cells were treated with compounds to be tested at a final concentration range varying from 3.9×10^−8 to 5×10^−6 M. Media was removed and 3.7% (w/v) formaldehyde in PBS was added for 20 min. After two washes with phosphate buffered saline (PBS), 0.25% (v/v) Triton X100 in PBS was added for 15 minutes of permeabilization. After one washing step with PBS, cells were blocked for 1 h with 5% (w/v) non-fat dry milk in PBS. Fixed cells were exposed to primary […] antibody in 5% non-fat dry milk in PBS for 24 h. One row of cells on each plate was not exposed to p53K370me1 antibody and was reserved for background control measurements. The wells were washed three times with PBS, then secondary IR800 conjugated antibody (LI-COR) and DNA-intercalating dye, 5 μM DRAQ5 (LI-COR) were added for 3 h. After 5 washes with PBS, the fluorescence in each well was measured on an Odyssey (LI-COR) scanner at 800 nm (p53K370me1 signal; 764 nm excitation) and 700 nm (DRAQS signal; 683 nm excitation). Fluorescence intensity was quantified and normalized to background and DRAQ5 signals. IC50 values were calculated by fitting the normalized inhibition data to a 4-parameter logistic equation (Minimum, Maximum, IC50, Hill; Y=Max+(Min−Max)/(1+(X/IC50)Hill)) for each tested compound. For IC50 determination C0 (=no inhibition) was defined as the signal measured for DMSO treated controls. Ci (maximal inhibition) was defined as the signal measured for non SMYD2 overexpressing KYSE150 cells.

Row | Structure (SMILES) | IC50 (SMYD2 [1]) | IC50 (SMYD2 [2])
1 | CCN(C(=O)[C@H]1CCCN1)C1CN(/C(=N\C#N)Nc2ccc(F)c(OC(F)(F)F)c2)N=C1c1ccc(Cl)c(Cl)c1 (single isomer, unassigned) [Example 22.1, N-[1-{N′-Cyano-N-[4-fluoro-3-(trifluoromethoxy)phenyl]carbamimidoyl}-3-(3,4-dichlorophenyl)-4,5-dihydro-1H-pyrazol-4-yl]-N-ethyl-D-prolinamide] | 30.5 nM | 96.5 nM
2 | CCN(C(=O)[C@H]1CCN1)C1CN(/C(=N\C#N)Nc2cccc(OC(F)F)c2)N=C1c1ccc(Cl)c(C)c1 (single isomer, unassigned) [Example 36.1] | 10.5 nM | 14.8 nM
3 | CCN(C(=O)[C@H]1C[C@@H](F)CN1)C1CN(/C(=N\C#N)Nc2cccc(OC(F)F)c2)N=C1c1ccc(Cl)c(C)c1 (single isomer, unassigned) [Example 38.1] | 30 nM | 2.55 nM
